Laboratory results taken from patent US8501166B2, “Pyrimidinyl indole compounds” (Hutchison Medipharma Limited, priority 2010, dated 2013).
Counter-ions that a name gives are not always drawn.

How the values were obtained:
[1] = test system: LPS-induced plasma TNFα production; experiment: LPS-induced plasma cytokine production in mouse, TNFα; assay type: in vivo, Balb/c mice
Protocol: Balb/c mice (female, body weight from 18 to 20 g) are used in these experiments. The dose dependency, time course study and pharmacokinetic/pharmacodynamic relationship of the test compound are conducted in mice treated with LPS (0.4 mg/kg).
Eight mice/group are administrated with 1 to 100 mg/kg of either the test compound (suspension in 10% acacia) or vehicle by oral gavage at 1 h prior to intraperitoneal injection of 0.4 mg/kg LPS. Ninety minutes after LPS administration, blood samples are collected in tubes containing heparin for anticoagulation. Plasma samples are diluted 3-fold with dilution buffer (R&D, Cat.No. Part 895206, Calibrator Diluent RD5Z). TNFα levels are measured using ELISA kit (R&D, Cat.No. MTA00) based on manufacture's protocol. Data is acquired using a SPECTRAMAX® M2e Plus Plate Reader and analyzed by standard curve fitting.
(§1) Alternately, the compound is screened for its ability to inhibit the LPS-induced cytokine production in rat plasma according to the method reported in the literature (Ziegelbauer K, Gantner F, Lukacs N W, et al. Br J. Pharmacol. 2005,145(2):178-92). Briefly, Lewis rats (male, body weight 140 g-180 g) are used in the experiments. Animals (8/group) are given 1 to 100 mg/kg of the testing compound (suspension in 35% solutol & 60% PEG400 & 5% PG) or vehicle by oral gavage at 1 h prior to intraperitoneal administration of LPS 0.4 mg/kg. Ninety minutes after the intraperitoneal administration of LPS, blood is collected in heparin anticoagulated tubes to measure TNFα using R&D System ELISA Kit based on the general Kit protocols. The plasma sample is diluted 100 fold with the dilution buffer and 50 μL of diluted sample is used in each measurement. The plate is read on a SPECTRAMAX® M2e Plus Plate Reader and TNFα levels are analyzed based on the standard curve. The drug levels in plasma are measured with LC-MS-MS. […] Alternately, the compound is screened for its ability to inhibit the LPS-induced cytokine production in mouse plasma. Balb/c mice (female, body weight 18-20 g) are used in the experiments. Mice (8/group) are administrated with 1 to 100 mg/kg of the test compound (suspension in 10% acacia) or vehicle by oral gavage at 1 h prior to introperitoneal (i.p.) administration of LPS (0.4 mg/kg). Ninety minutes after LPS administration, blood is collected with heparin anticoagulated tubes to measure TNFα levels (R&D, Cat.No. MTA00), IL-6 (R&D, Cat.No. M6000B) and IL-1β (R&D, Cat.No. MLB00B) based on the general kit protocols. Diluted or undiluted plasma samples of 50 μL are used for each measurement. […] The plate is read on a SPECTRMAX® M2e Plus Plate Reader and the data is analyzed using a standard curve.

[2] = test system: TNFα gene expression in U87MG xenograft; experiment: Inhibition of TNFα induced TNFα gene expression in U87MG xenograft; assay type: in vivo, Balb/c athymic nude mice
Protocol: TNFα stimulates IKKβ signaling and triggers TNFα gene expression. In order to confirm that a compound is targeting IKKβ in vivo, the compound is screened for its ability to inhibit TNFα induced TNFα gene expression in a U87MG (human glioblastoma cell line) xenograft. 3×10^6 U87MG tumor cells are implanted subcutaneously into the right lateral flank of female Balb/c athymic nude mice (6-8 weeks old). […] Nude mice are orally administered with the test compound at 2 h prior to tumor harvesting. TNFα (R&D, Cat: 210-TA) is intravenously injected at 1 h before tumor harvesting at 8 μg/kg.
Total RNA is extracted using the RNEASY® mini Kit (QIAGEN®, Cat: 74126). cDNA is synthesized using the High Capacity cDNA reverse transcription kit (ABI, Cat: 4368813). Quantitative real-time PCR is carried out in a 7500 real-time PCR system (Applied Biosystems) using the corresponding primers/probes for human GAPDH gene(ABI Hs99999905_ml) and human TNFα gene(ABI Hs00174128_ml) and ABgene Absolute QPCR ROX 2× master mix(AB-1139/B).
TNFα gene expression is normalized to β-actin gene expression. The gene counts are read from PCR machine Inhibition (%)=(Counts of Model—Counts of Treatment)/(Counts of Model-Counts of Control)×100%. Example 1 is specifically detailed in Table 3.

[3] = test system: LPS-induced plasma TNFα production; experiment: LPS-induced cytokine production in rat plasma; assay type: in vivo, Lewis rats; conditions: oral 1 h before LPS 0.4 mg/kg i.p.
Protocol: as §1, with “experiments.” for “experiments. Mice (8/group) are administrated with 1 to 100 mg/kg of the test compound (suspension in 10% acacia) or vehicle by oral gavage at 1 h prior to introperitoneal (i.p.) administration of LPS (0.4 mg/kg). Ninety minutes after LPS administration, blood is collected with heparin anticoagulated tubes to measure TNFα levels (R&D, Cat.No. MTA00), IL-6 (R&D, Cat.No. M6000B) and IL-1β (R&D, Cat.No. MLB00B) based on the general kit protocols. Diluted or undiluted plasma samples of 50 μL are used for each measurement.”

[4] = test system: LPS-induced plasma IL-6 production; experiment: LPS-induced plasma cytokine production in mouse, IL-6; assay type: in vivo, Balb/c mice; conditions: oral 1 h before LPS 0.4 mg/kg i.p.
Protocol: as §1, with “experiments.” for “experiments. Mice (8/group) are administrated with 1 to 100 mg/kg of the test compound (suspension in 10% acacia) or vehicle by oral gavage at 1 h prior to introperitoneal (i.p.) administration of LPS (0.4 mg/kg). Ninety minutes after LPS administration, blood is collected with heparin anticoagulated tubes to measure TNFα levels (R&D, Cat.No. MTA00), IL-6 (R&D, Cat.No. M6000B) and IL-1β (R&D, Cat.No. MLB00B) based on the general kit protocols. Diluted or undiluted plasma samples of 50 μL are used for each measurement.”

[5] = mouse, oral 1 h before LPS 0.4 mg/kg i.p.

SMILES | plasma TNFα level ([1]; 10 mg/kg oral 1 h before LPS 0.4 mg/kg, 90 min after LPS, baseline 2346.2 pg/mL) [pg/mL] | inhibition at 10 mg/kg ([1]; Mus musculus, 10 mg/kg oral 1 h before LPS 0.4 mg/kg, p<0.01) [%] | Inhibition Rate (%) of TNFα induced TNFα gene expression ([2]; 10 mg/kg oral, 2 h) [%] | Inhibition Rate (%) of TNFα induced TNFα gene expression ([2]; 30 mg/kg oral, 2 h) [%] | Inhibition Rate (%) of TNFα induced TNFα gene expression ([2]; 60 mg/kg oral, 2 h) [%] | Inhibition Rate (%) of TNFα induced TNFα gene expression ([2]; 100 mg/kg oral, 2 h) [%] | EC50 [1, 5] [µg/mL] | ED50 [1, 5] [mg/kg] | ED50 [3] [mg/kg] | EC50 ([3]; read-out: EC50, plasma TNFα production (drug level in plasma)) [µg/mL] | Inhibition Rate (%) of TNFα induced TNFα gene expression ([2]; Table 4, 3 mg/kg oral) [%] | Inhibition Rate (%) of TNFα induced TNFα gene expression ([2]; Table 4, 10 mg/kg oral) [%] | Inhibition Rate (%) of TNFα induced TNFα gene expression ([2]; Table 4, 30 mg/kg oral) [%] | Inhibition Rate (%) of TNFα induced TNFα gene expression ([2]; Table 4, 60 mg/kg oral) [%] | ED50 [4] [mg/kg]
O=C(NC1CC1)c1cccc2[nH]c(-c3nc(N[C@@H]4CCC[C@@H]4O)ncc3Cl)cc12 [Example 1, 2-{5-Chloro-2-[(1R,2S)-2-hydroxycyclopentylamino]pyrimidin-4-yl}-N-cyclopropyl-1H-indole-4-carboxamide hydrochloride] | 1474.9 | 37.1 | 49.1 | 68.5 | 86.2 | 94.9 |  |  |  |  |  |  |  |  | 
Cl.O=C(NC1CC1)c1cccc2[nH]c(-c3nc(N[C@@H]4CCC[C@H]4O)ncc3Cl)cc12 [Example 2, 2-{5-Chloro-2-[(1R,2R)-2-hydroxycyclopentylamino]pyrimidin-4-yl}-N-cyclopropyl-1H-indole-4-carboxamide hydrochloride] |  |  |  |  |  |  | ~2.42 | 4.84 | 19.8 ± 10.9 | 4.04 ± 1.28 | 10.7 | 25.3 | 69.7 | 87.8 | 15.1
